This is an account of results in paper PMC11576293, “New series of 4,6-diaryl pyrimidines: facile synthesis and antiproliferative activity as dual EGFR/VEGFR-2 inhibitors” (Frontiers in Chemistry, 2024).

One data set deals with VEGFR-2 (Homo sapiens, UniProt P35968). Kind of data set: VEGFR-2 inhibitory assay.
The target of the next data set is T1, EGFR (Homo sapiens, UniProt P00533).
T1 construct: amino acids 645–1186; His6 (N); made in house; host or cells: Sf-9 insect cells (baculovirus; pBlueBacHis2B / pFASTBacHTc)
Kind of data set: EGFR-TK inhibitory assay. It is filed as biochemical. As to conditions: read-out: EGFR inhibition IC50 ± SEM.

Data set [1] in a line: Experimental lipophilicity by RP-TLC. The format is physicochemical. As to conditions: for Experimental lipophilicity Co: concentration of MeOH at RM = 0, in % (unit assumed). The source says: The RP-TLC method was used to measure the lipophilicity parameters (RMo, b, and Co) described in the experimental section. The mobile phase consisted of different proportions of water and organic modifier (MeOH). RF and RM values were obtained for each ratio of organic modifier/water system (Supplementary Table S3), and a linear regression analysis was achieved to obtain the lipophilicity chromatographic descriptors (RMo, b, and Co, see Table 6). Relative lipophilicity (RMo) describes the partitioning of the solute between pure water and nonpolar stationary phase. In contrast, the second lipophilicity parameter (Co) represents the concentration of organic modifier in the mobile phase in which the solute is equally distributed between two phases (i.e., RM = 0, and Rf = 0.5). Also, Co is known to be widely used in QSAR analysis as it embraces both the specific hydrophobic surface area of the solute and RMo. […] Finally, the slope of the regression line (b) was used as a descriptor of the specific hydrophobic surface area of the compound. In a series of structurally related compounds, b is linearly correlated with RMo, resulting in a linear relationship that is the basic feature of the chromatographic determination of lipophilicity. […] Moreover, substituents affected tested compounds’ measured lipophilicity parameter (RMo) values. Higher RMo values were found with lipophilic derivatives containing the benzyl group (14, 22, and 28), while lower RMo values were found with derivatives containing alkyl or allyl groups (19, 26, and 27). An interesting contradiction was found with experimental lipophilicity value of 28 and its congener 14, where compound 28 was found more lipophilic than its congener 14 even though it contains two methoxy groups and according to ChemDraw® and MolSoft® programs, derivative 14 should be more lipophilic while the MOE® program expects values matching our findings. […] Also, S-allyl derivatives were nearly equipotent to S-alkyl congeners as antiproliferative agents but quite different in terms of lipophilicity.

The next data set concerns HCT-116. Kind of data set: NCI-60 single-dose screen. It is filed as cell-based. As to conditions: Homo sapiens, single dose 10 µM, '-' = no inhibition, read-out: % Growth Inhibition. The method, boiled down:
(§1)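 NCI Developmental Therapeutics Program screen across 60 human cancer cell lines from nine tumor types; compounds tested at a single dose of 10 μM.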

The next data set has as its system SN12C. As to the kind of experiment: NCI-60 single-dose screen. The format is cell-based. As to conditions: Homo sapiens, single dose 10 µM, '-' = no inhibition, read-out: % Growth Inhibition. Summed up:
as §1

The next data set concerns K-562. Kind of data set: NCI-60 single-dose screen. The format is cell-based. As to conditions: Homo sapiens, K562, single dose 10 µM, '-' = no inhibition, read-out: % Growth Inhibition. The method, boiled down: as §1
For a further data set, the system named is CCRF-CEM. Kind of data set: NCI-60 single-dose screen. It is filed as cell-based. As to conditions: Homo sapiens, single dose 10 µM, '-' = no inhibition, read-out: % Growth Inhibition. Summed up: as §1
In a further data set the test system is SK-MEL-2. As to the kind of experiment: NCI-60 single-dose screen. It is filed as cell-based. As to conditions: Homo sapiens, single dose 10 µM, '-' = no inhibition, read-out: % Growth Inhibition. Summed up: as §1
Another data set deals with OVCAR-8. Kind of data set: NCI-60 single-dose screen. It is filed as cell-based. As to conditions: Homo sapiens, single dose 10 µM, '-' = no inhibition, read-out: % Growth Inhibition. The method, boiled down:
as §1

For the next data set, the system named is MDA-MB-435. Kind of data set: NCI-60 single-dose screen. It is filed as cell-based. As to conditions: Homo sapiens, single dose 10 µM, '-' = no inhibition, read-out: % Growth Inhibition. Summed up: as §1
For another data set, the system named is A-549 cancer cells. Kind of data set: Wound healing assay (migration, wound closure). The format is cell-based, human. As to conditions: A-549 cells. Here is the method: Wound healing assay is a simple, reproducible, and non-expensive method to study cancer cell migration in vitro ([Rodriguez et al., 2005]). We investigated the wound-healing activities of compounds 22 and 29 in A-549 cancer cells. […] Furthermore, the wound closure percentage achieved 100% after 72 h of treatment with a compound 22, whereas it reached only 80% with a compound 29.

The subject of another data set is Bax. Kind of data set: Bax activation assay. It is filed as cell-based, human. As to conditions: for Bax Conc: A-549 cancer cells. Here is the method: 4.2.7. Bax activation assay
Bring all reagents, except the human Bax-α Standard, to room temperature for at least 30 minutes prior to opening. The human Bax-α Standard solution should not be left at room temperature for more than 10 minutes. All standards, controls and samples should be run in duplicate. Refer to the Assay Layout Sheet to determine the number of wells to be used and put any remaining wells with the desiccant back into the pouch and seal the ziploc. Store unused wells at 4 °C. Pipet 100 μL of Assay Buffer into the S0 (0 pg/mL standard) wells. Pipet 100 μL of Standards #1 through #6 into the appropriate wells. Pipet 100 μL of the Samples into the appropriate wells. Tap the plate gently to mix the contents. Seal the plate and incubate at room temperature on a plate shaker for 1 hour at ~500 rpm. Empty the contents of the wells and wash by adding 400 μL of wash solution to every well. Repeat the wash 4 more times for a total of 5 washes. After the final wash, empty or aspirate the wells and firmly tap the plate on a lint free paper towel to remove any remaining wash buffer.
Pipet 100 μL of yellow Antibody into each well, except the Blank. Seal the plate and incubate at room temperature on a plate shaker for 1 hour at ~500 rpm. Empty the contents of the wells and wash by adding 400 μL of wash solution to every well. Repeat the wash 4 more times for a total of 5 washes. After the final wash, empty or aspirate the wells and firmly tap the plate on a lint free paper towel to remove any remaining wash buffer. Add 100 μL of blue Conjugate to each well, except the Blank. Seal the plate and incubate at room temperature on a plate shaker for 30 minutes […]
Pipet 100 μL of Substrate Solution into each well. Incubate for 30 minutes at room temperature on a plate shaker at ~500 rpm. Pipet 100 μL Stop Solution to each well. Blank the plate reader against the Blank wells, read the optical density at 450 nm. Calculate the average net Optical Density (OD) bound for each standard and sample by subtracting the average Blank OD from the average OD for each standard and sample. Using linear graph paper, plot the Average Net OD for each standard versus Bax concentration in each standard. Approximate a straight line through the points.
The concentration of Bax in the unknowns can be determined by interpolation. […]

Where “and” joins values, the source holds several entries; their conditions need not be identical. Equal values may be shown once.

T1 sequence (P00533 669-1210): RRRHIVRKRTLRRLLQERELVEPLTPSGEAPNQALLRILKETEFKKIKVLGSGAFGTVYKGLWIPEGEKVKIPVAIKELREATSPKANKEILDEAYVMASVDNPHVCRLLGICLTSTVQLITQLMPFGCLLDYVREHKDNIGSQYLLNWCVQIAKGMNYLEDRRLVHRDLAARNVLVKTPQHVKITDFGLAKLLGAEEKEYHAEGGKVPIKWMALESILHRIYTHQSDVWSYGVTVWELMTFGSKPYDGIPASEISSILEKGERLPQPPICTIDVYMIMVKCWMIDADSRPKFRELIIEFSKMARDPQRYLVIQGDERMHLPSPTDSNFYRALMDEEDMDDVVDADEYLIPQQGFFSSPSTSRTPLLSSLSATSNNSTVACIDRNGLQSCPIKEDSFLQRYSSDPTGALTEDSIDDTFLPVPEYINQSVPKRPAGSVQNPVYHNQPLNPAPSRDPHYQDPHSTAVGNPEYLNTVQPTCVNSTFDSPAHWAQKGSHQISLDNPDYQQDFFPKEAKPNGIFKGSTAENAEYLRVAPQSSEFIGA
VEGFR-2, sequence (P35968 20-1356): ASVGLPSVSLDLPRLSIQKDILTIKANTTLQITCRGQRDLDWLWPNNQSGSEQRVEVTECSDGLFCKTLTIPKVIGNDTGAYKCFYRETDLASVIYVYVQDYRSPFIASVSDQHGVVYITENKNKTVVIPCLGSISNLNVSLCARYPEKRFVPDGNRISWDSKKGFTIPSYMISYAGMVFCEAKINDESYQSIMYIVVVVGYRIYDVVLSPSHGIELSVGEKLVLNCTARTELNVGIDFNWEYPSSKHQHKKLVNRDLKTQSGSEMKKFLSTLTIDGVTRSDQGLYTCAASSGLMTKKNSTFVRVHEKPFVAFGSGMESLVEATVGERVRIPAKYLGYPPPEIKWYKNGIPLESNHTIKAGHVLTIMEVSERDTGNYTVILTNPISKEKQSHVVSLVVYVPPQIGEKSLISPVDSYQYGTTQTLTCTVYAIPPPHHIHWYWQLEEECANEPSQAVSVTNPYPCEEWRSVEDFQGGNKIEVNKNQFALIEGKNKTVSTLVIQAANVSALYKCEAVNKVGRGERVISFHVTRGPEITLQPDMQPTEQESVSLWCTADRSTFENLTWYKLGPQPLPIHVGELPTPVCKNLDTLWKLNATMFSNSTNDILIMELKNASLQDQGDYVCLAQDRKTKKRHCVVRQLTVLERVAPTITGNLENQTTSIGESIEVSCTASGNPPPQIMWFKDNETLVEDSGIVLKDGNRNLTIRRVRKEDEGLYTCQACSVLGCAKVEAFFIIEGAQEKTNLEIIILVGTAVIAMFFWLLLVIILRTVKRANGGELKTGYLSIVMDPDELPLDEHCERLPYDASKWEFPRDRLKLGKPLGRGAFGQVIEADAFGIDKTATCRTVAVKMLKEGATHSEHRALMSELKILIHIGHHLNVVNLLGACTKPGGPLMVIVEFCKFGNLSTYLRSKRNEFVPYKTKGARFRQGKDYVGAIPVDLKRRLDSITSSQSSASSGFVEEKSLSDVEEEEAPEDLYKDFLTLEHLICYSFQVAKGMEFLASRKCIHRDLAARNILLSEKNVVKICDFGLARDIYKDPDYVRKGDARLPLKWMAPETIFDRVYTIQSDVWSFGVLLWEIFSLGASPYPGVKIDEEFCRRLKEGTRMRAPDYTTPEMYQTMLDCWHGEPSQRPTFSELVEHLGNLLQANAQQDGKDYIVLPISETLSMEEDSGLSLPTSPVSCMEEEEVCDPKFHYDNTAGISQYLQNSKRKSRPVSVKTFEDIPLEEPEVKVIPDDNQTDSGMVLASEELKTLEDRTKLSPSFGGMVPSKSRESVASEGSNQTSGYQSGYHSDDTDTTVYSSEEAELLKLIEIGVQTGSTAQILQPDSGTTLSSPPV

In the case of `COc1ccc(-c2cc(-c3ccc(Cl)cc3)nc(SCc3ccccc3)n2)cc1` [Compound 14, 2-(Benzylthio)-4-(4-chlorophenyl)-6-(4-methoxyphenyl)pyrimidine], the values for the IC50 against VEGFR-2 and on EGFR were 2.2 ± 0.02 nM and 90 ± 7 nM, respectively. The “Experimental lipophilicity RMo” value in data set [1] (MeOH/water mobile phase) was determined as 7.024 ± 0.05913. For the same molecule, the “Experimental lipophilicity b (slope)” value in data set [1] (MeOH/water mobile phase) is -0.074 ± 0.00066. Besides, in data set [1], the “Experimental lipophilicity Co” value is recorded as 91.3417. For the same molecule, the inhibition at 10 µM in the data set on HCT-116 was < 0%; in the data set with SN12C, 10.4%; with K-562, 11.7%; with CCRF-CEM, < 0%; in the data set with SK-MEL-2 it was 7.79%; in the data set with OVCAR-8, < 0%. The inhibition at 10 µM in the data set with MDA-MB-435 was 3.68%.
On to `CCSc1nc(-c2ccc(OC)cc2)cc(-c2cccc(OC)c2)n1` [Compound 17, 2-(Ethylthio)-6-(3-methoxyphenyl)-4-(4-methoxyphenyl)pyrimidine], for which the figures for the IC50 against VEGFR-2 and at EGFR were 1.85 ± 0.01 nM and 87 ± 6 nM, respectively. Moreover, the inhibition at 10 µM with HCT-116 was 5.86%; in the data set with SN12C, < 0%; in the data set on K-562, 9.37%; in the data set with CCRF-CEM, 2.15%; with SK-MEL-2, 5.15%; with OVCAR-8 it was < 0%. For the same molecule, the inhibition at 10 µM in the data set with MDA-MB-435 is 2.52%.
Take `COc1ccc(-c2cc(-c3cccc(OC)c3)nc(SC(C)C)n2)cc1` [Compound 19, 2-(Isopropylthio)-6-(3-methoxyphenyl)-4-(4-methoxyphenyl)pyrimidine]: the results for the concentration for half-maximal inhibition (IC50) on VEGFR-2 and on EGFR were 2.7 ± 0.02 nM and 83 ± 6 nM, respectively. Further, the “Experimental lipophilicity RMo” value in data set [1] (MeOH/water mobile phase) turned out to be 7.02. For the same molecule, the “Experimental lipophilicity Co” value in data set [1] was 87.6579 and 91.32. The inhibition at 10 µM with HCT-116 turned out to be 23.8%; with SN12C, 18.5%; with K-562, 29.5%; with CCRF-CEM, 9.07%; in the data set on SK-MEL-2, 7.18%; with OVCAR-8 it was 10.7%. For the same molecule, in the data set with MDA-MB-435, the inhibition at 10 µM was 3.92%.
`COc1ccc(CSc2nc(-c3ccc(OC)cc3)cc(-c3cccc(OC)c3)n2)cc1` [Compound 22, 2-(4-Methoxybenzylthio)-6-(3-methoxyphenyl)-4-(4-methoxyphenyl)pyrimidine] yielded an IC50 against VEGFR-2 of 1.15 ± 0.01 nM. The “Experimental lipophilicity RMo” value in data set [1] (MeOH/water mobile phase) was 6.449 ± 0.05873 and 6.24. Moreover, the “Experimental lipophilicity Co” value in [1] was 90.6598 and 87.7. Also, in the data set with A-549 cancer cells, the “Wound closure % 24 h” value stood at 25%, the “Wound closure % 48 h” value came out at 50% and the “Wound closure % 72 h” value worked out at 100%. Also, in the data set on Bax, the “Bax Conc” value was 294 pg/mL and 294 ± 6 pg/mL.
Take `CCCSc1nc(-c2ccc(Cl)cc2)cc(-c2ccc(OC)c(OC)c2)n1` [Compound 25, 4-(4-Chlorophenyl)-6-(3,4-dimethoxyphenyl)-2-(propylthio)pyrimidine]: the half-inhibitory concentration (IC50) against VEGFR-2 was determined as 2.95 ± 0.02 nM; at EGFR, 78 ± 5 nM. Besides, the inhibition at 10 µM in the data set with HCT-116 is < 0%; with SN12C, < 0%; in the data set with K-562, 27.1%; with CCRF-CEM, 11.2%; in the data set on SK-MEL-2 it was 14.9%; in the data set with OVCAR-8, 6.34%. Also, the inhibition at 10 µM in the data set on MDA-MB-435 worked out at 0.34%.
`COc1ccc(CSc2nc(-c3ccc(Cl)cc3)cc(-c3ccc(OC)c(OC)c3)n2)cc1` [Compound 29, 2-(4-Methoxybenzylthio)-4-(4-chlorophenyl)-6-(3,4-dimethoxyphenyl)pyrimidine]: the half-inhibitory concentration (IC50) against VEGFR-2 turned out to be 1.6 ± 0.01 nM; at EGFR, 72 ± 5 nM. Moreover, the “Wound closure % 24 h” value in the data set on A-549 cancer cells was 11%. Also, the “Wound closure % 48 h” value in the data set on A-549 cancer cells is 34%. For the same molecule, the “Wound closure % 72 h” value with A-549 cancer cells worked out at 80%. Moreover, the inhibition at 10 µM came out at 30.2% in the data set on HCT-116; 35.6% in the data set with SN12C; 54.5% in the data set with K-562; 14.2% in the data set with CCRF-CEM; 13.7% with SK-MEL-2; 19.4% in the data set on OVCAR-8. In the data set on MDA-MB-435, the inhibition at 10 µM was 22.8%. The “Bax Conc” value in the data set with Bax is 278 pg/mL and 278 ± 5 pg/mL. Also, the “Bax Fold change” value in the data set with Bax (compared to untreated A-549 cancer cells) is recorded as 35 fold.
